Reference: patent US10898708B2, “System and method for applying pulsed electromagnetic fields” (National University of Singapore, priority 2015, dated 2021)
Entries after “also recorded” stand apart in the source; their conditions may differ.

Tests used:
C2C12 myoblasts [1] = assay: PEMF-induced proliferation of C2C12 myoblasts; conditions: 100 μM; 1 mT PEMFs within 18 hours after plating
C2C12 myoblasts [2] = assay: Intracellular calcium in C2C12 myoblasts (Calcium Green-1; flow cytometry or plate reading); format: cell-based, mouse
Procedure: In preparation for measurement of changes in intracellular calcium in response to PEMF treatment with flow cytometry myoblasts (50,000 cells) were spun down (1000 RCF; 5 minutes), resuspended in 2 ml of PBS and next loaded with 20 μl Calcium Green-1, AM (50 μg in 100 μl DMSO; Molecular Probes) for 30 minutes at 37 C in the dark. Following incubation, cells were washed once, resuspended into 500 μl PBS and placed on ice before registry in a BD FACSAria Flow Cytometer (FL1 channel). For plate reading assessment of intracellular calcium, myoblasts were plated into 96 black well plates (Brand 96 Flat Bottom Black) at 10,000 cells/wells. Cultures were washed once with PBS and supplied with 250 μl growth media to which Calcium Green-1 AM (50 μg in 100 μl DMSO; Molecular Probes) had been added at a dilution of 1:1000. Myoblasts cultures were then incubated in a standard tissue culture incubator for 5 minutes, followed by PEMF exposure for 10 minutes and then replaced in the incubator for an additional 15 minutes at 37° C. before washing with 37° C. PBS. Calcium measurement was conducted using a Tecan Infinite 200Pro plate reader with excitation wavelength and emission wavelengths set to 500 nm and 535 nm, respectively, and bandwidth excitation and emission wavelengths set to 9 and 20 nm, respectively.
(§1) Each pulse train consists of 20×150 μsec asymmetric pulses separated by 150 μsec interpulse intervals to the 0 flux level. The magnetic flux density rose to maximal level within 20-50 μsec and dropped equally as rapidly (50 T/s).

C2C12 myoblasts [3] = assay: Cell cycle (G2/M accumulation) of myoblasts in simulated microgravity; format: cell-based, mouse; conditions: 5 mM added transiently 10 minutes before simulated microgravity; at 2 hours
Procedure: The RPM was kept in a temperature-controlled room at 37° C. The calculated gravity exerted upon cells on the RPM was below 0.02 g. Cells were seeded 15 hours prior to the start of the RPM experiment at 8000/cm^2. At 15 hours some samples were incubated with 5 mM CaCl2 for 10 min, washed twice with PBS, given aged matched GM and placed onto the RPM. Other samples were exposed to PEMF at 37° C. (0.5 or 1.5 mT) for 10 min before being placed onto the RPM. Samples were fixed after 2 hours for subsequent cell cycle analysis as described below.
Following RPM treatment (above) cells were fixed and stored at −20° C. in 70% ice-cold ethanol for 12 to 18 hours prior to staining. Cell cycle was analyzed based on DNA content using a propidium iodide (PI)/RNase staining kit (BD Biosciences, cat#550825) by FACS.

TRPC1 channel = target: T1, TRPC1 channel (Homo sapiens, UniProt P48995); assay: Oxygen consumption rate (OCR) of myoblasts in response to PEMF; format: cell-based; conditions: oxygen consumption measured 6 hours after PEMF
T1 construct: PEMF-induced TRPC1-mediated calcium entry in myoblasts increases oxygen consumption rate (OCR); endogenous in cells
Procedure: Muscle gene expression enhanced by PEMF treatment as indicated. […] The principal functions of these genes are shown in the parentheses. […] A) Human myoblast measurement showing increased OCR six hours following exposure to 1.5 mT PEMFs for 10 minutes. B) The production of reactive oxygen species (ROS) also increases 15 minutes after PEMF (1.5 mT) exposure.
C) Oxygen consumption rate (OCR) in response to PEMF stimulation obeys the same EMF efficacy window as proliferation. […] Cells were exposed to PEMFs and oxygen consumption measured 6 hours later. These cellular responses obey a mitohormeitic EMF efficacy window particular for skeletal muscle.

C2C12 myoblasts [4] = assay: Myogenic differentiation (myotube area) of C2C12 myoblasts after PEMF; format: cell-based, mouse; conditions: 100 μM co-administered; 1 mT PEMFs, early application
Procedure: Series of 4 images with 20× magnification were taken for each sample and myotube area was calculated by manually delimiting the myotube periphery using ImageJ (Cell Counter plugin).
as §1

[5] = extracellular magnesium raised to 10 mM, plate reading

T1 sequence (P48995 whole entry): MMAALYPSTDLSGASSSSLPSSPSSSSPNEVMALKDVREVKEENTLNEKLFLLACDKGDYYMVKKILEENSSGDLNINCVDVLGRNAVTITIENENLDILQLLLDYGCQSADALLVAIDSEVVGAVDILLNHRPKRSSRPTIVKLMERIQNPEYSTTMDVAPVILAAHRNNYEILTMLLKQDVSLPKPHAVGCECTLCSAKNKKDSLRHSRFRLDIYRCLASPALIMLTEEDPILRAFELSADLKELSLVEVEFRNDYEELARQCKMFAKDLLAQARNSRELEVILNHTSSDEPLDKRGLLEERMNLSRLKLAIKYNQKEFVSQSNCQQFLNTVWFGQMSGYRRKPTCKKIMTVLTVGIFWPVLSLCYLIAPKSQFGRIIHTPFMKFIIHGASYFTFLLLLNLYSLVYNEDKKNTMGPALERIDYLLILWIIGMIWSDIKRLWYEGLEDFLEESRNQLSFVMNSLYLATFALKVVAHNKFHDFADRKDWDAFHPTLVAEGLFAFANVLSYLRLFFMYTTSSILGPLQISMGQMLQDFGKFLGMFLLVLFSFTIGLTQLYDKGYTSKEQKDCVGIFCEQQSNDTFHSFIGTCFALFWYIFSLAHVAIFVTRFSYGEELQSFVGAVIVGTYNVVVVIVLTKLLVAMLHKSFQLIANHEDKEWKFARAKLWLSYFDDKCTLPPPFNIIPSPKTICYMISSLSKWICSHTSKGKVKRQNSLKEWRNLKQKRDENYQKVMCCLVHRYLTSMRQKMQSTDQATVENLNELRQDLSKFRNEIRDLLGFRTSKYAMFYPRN

`NCCOB(c1ccccc1)c1ccccc1` [2-APB, 2-Aminoethyl diphenylborinate] was tested, and the PEMF-induced proliferation (C2C12 myoblasts [1]) was “abolished the ability of PEMFs to enhance proliferation”, the “[Ca^2+]i / cytosolic calcium level” value (C2C12 myoblasts [2]; 10 μM, unstimulated (0 mT) and stimulated (1 mT) myoblasts) was “reduced the cytosolic calcium levels to a common baseline; also recorded: reduced [Ca^2+]i to a common baseline” and the PEMF-provoked calcium increments (C2C12 myoblasts [2]; antagonizing TRPM7/C1 channels, 1 mT PEMFs) was “precluded the ability of PEMFs to provoke calcium increments”.
In the case of `[Ca+2].[Cl-].[Cl-]` [CaCl2], the “Reversal of G2/M accumulation from simulated microgravity” value (C2C12 myoblasts [3]) is reported as “mimic the effects of 1.5 mT PEMFs”.
`COc1ccc(CCCOC(Cn2ccnc2)c2ccc(OC)cc2)cc1` (centres unmarked) [SKF-96365] was tested, and the “OCR in response to PEMF exposure” value (TRPC1 channel) was “blocks OCR in response to PEMF exposure”.
For `COc1cc(CNC(=O)CCCC/C=C/C(C)C)ccc1O` [capsaicin], the “capsaicin calcium response versus response to PEMFs” value (C2C12 myoblasts [2]; 1 mT PEMFs) was “inversely related to response to 1 mT PEMFs”.
In the case of `C[C@H](CCC(=O)O)C[C@H](C)C[C@H](C)C(=O)/C=C(\O)[C@H](C)C[C@H](C)C/C=C/[C@@H](C)[C@@H](O)[C@@H](C)[C@@H](O)C[C@@H]1CC[C@@](C)([C@H]2CC[C@@](C)([C@@H](C)O)O2)O1` [ionomycin], the “[Ca^2+]i increase relative to unexposed cells” value (C2C12 myoblasts [2]; 1 μM, 30 min, compared with 1 mT PEMFs for 10 min, listed as lonomycin) is reported as “comparable magnitude” and the “[Ca^2+]i” value (C2C12 myoblasts [2]; 1 μM, five-hour application) is reported as “produced lethal [Ca^2+]i”.
In the case of `[Mg+2]` [magnesium], the “PEMF-induced rise of intracellular calcium” value (C2C12 myoblasts [2]; [5]) is reported as “did not prevent PEMFs from raising intracellular calcium; also recorded: does not prevent PEMFs from raising intracellular calcium” and the “basal and PEMF-induced calcium levels” value (C2C12 myoblasts [2]; [5]) is reported as “augmented both basal and PEMF-induced calcium levels”.
For neomycin, the “PEMF enhancement of myotube size (mean myotube area)” value (C2C12 myoblasts [4]) was “prevented”.
